The text below walks through data of patent US10189796B2, “[4-(1,3,3-trimethyl-2-oxo-3,4-dihydro-1H-quinoxalin-7-yl)phenoxy]ethyloxy compound or salt thereof” (SANTEN PHARMACEUTICAL CO., LTD., priority 2015, dated 2019).

Assay [1] deals with IL-2 production in normal human CD4+T cell. Put plainly: IL-2 production inhibitory action evaluation test (anti-CD3/CD28 antibody stimulation, ELISA). The class given is cell-based. The conditions noted are these: anti-CD3/CD28, 24 hours, read-out: IL-2 production inhibitory ratio (% of 1 μM). As to the method:
In order to evaluate an action of the present compound as a GR agonist, IL-2 and IL-4 production inhibitory actions in a normal human CD4^+T cell after stimulation by an anti-CD3/CD28 antibody were investigated. For the measurement of the IL-2 and IL-4 production amounts, the ELISA method (manufactured by R&D Systems, Cat No. D2050, HS400) was used, and a procedure was carried out according to the protocol attached thereto. Hereinafter, the specific method will be described.
Dynabeads (Registered Trademark) Human T-Activator CD3/CD28 (4×10^7 beads/mL) (Dynabeads) was used, and prepared according to the protocol attached thereto.
After the test compound was dissolved in dimethylsulfoxide, the solution was diluted with an RPMI medium to prepare 400 μM of a test compound solution. The solution was diluted with a 4% dimethylsulfoxide-containing RPMI medium to prepare 40 μM of a test compound solution.
Used cells: normal peripheral blood human CD4^+T cell (human CD4^+T cell) (Lonza)
• 1) Frozen human CD4^+T cells were thawed in a warm water bath at 37° C., and added to an RPMI medium (RPMI 1640 containing 10% FBS, 100 U/mL of Penicillin, and […] of Streptomycin). • 2) The above suspension was recovered and centrifuged at 900 rpm for 10 minutes to give a cell sediment. • 3) The cell sediment was suspended in an RPMI medium and the operation of 2) was carried out. • 4) The cell sediment was adjusted to 4×10^5 cells/mL with an RPMI medium. • 5) The above suspension was cultured in a CO2 incubator (temperature: 37° C., CO2 concentration: 5%) for 1 hour or longer. (Test Method and Measurement Method) • 1) The cultured human CD4^+T cells were recovered and the cells were seeded in 96-well flat bottom culture plates at each 8.0×10^4 cells/0.2 mL/well. • 2) The test compound solution was added with each 5 μL/well. • 3) The prepared Dynabeads were added with each 2 μL/well. • 4) The sample in which 4% dimethylsulfoxide-containing RPMI medium was added with each 5 μL/well in place of each test compound solution, and the RPMI medium was added with each 2 μL/well in place of the Dynabeads was made a negative control. • 5) The sample in which 4% dimethylsulfoxide-containing RPMI medium was added with each 5 μL/well in place of each test compound solution was made a positive control. • 6) After completion of 24 hours cultivation, the supernatant was recovered and the amounts of IL-2 and IL-4 released in the supernatant was measured by using an ELISA Kit. • 7) The IL-2 and IL-4 production inhibitory ratios were calculated according to the following calculation formula. (Calculation of IL-2 and IL-4 Production Inhibitory Ratios)
The IL-2 and IL-4 production inhibitory ratios (%) were calculated by the following formula, respectively. IL-2 or IL-4 production inhibitory ratio (%)=100×{1−(IL-2 or IL-4 production amounts of each test compound solution−average value of IL-2 or IL-4 production amount of negative control group)/(average value of IL-2 or IL-4 production amount of positive control group−average value of IL-2 or IL-4 production amount of negative control group)}(%) (Test Result and Consideration)
Background: An ELISA detects its analyte on a solid surface through an enzyme-linked reagent.

For assay [2], the system named is IL-6 production in human corneal epithelium cell line (HCE-T). Nature of the assay: IL-6 production inhibitory action evaluation test (LPS stimulation, HTRF). The conditions noted are these: 4 hours; for Emax: 100 μM test compound solution 10 μL/well, DEX treated group = 100, read-out: IL-6 production inhibitory ratio (% DEX); for pIC50: IL-6 production inhibition. The class given is cell-based. As to the method:
To evaluate the action of the present compounds as a GR agonist, IL-6 production inhibitory action in human corneal epithelial cell line after LPS stimulation was examined The IL-6 production was measured by using the HTRF method (Cat No. 62IL6PEB manufactured by Cisbio Bioassays, Inc.) according to the attached protocol. The specific method is described below.
LPS solution: After dissolving LPS in PBS(−), the resulting solution was diluted with a culture solution, whereby an LPS solution with a 1 μg/mL concentration was prepared.
After dissolving the test compound in dimethylsulfoxide, the solution was diluted with a 10% FBS-DMEM/Ham's F12 medium, whereby a 100 μM of the test compound solution was prepared. […] In addition, DEX was similarly dissolved, whereby a 100 μM concentration of the DEX solution was prepared, and an IL-6 production inhibitory ratio of DEX was measured, and used for calculation of Efficacy (% DEX).
Used cells: human corneal epithelium cell line (HCE-T) (RIKEN, Institute of Physical and Chemical Research)
The cells continued to subculture according to this method were used for the test. (Test Method and Measurement Method) • 1) The subcultured HCE-T was recovered and the cells were seeded at 2.0×10^4 cells/0.1 mL/well in a 96-well flat bottom culture plate. • 2) After culturing overnight, medium the medium was removed and each 80 μL/well of 10%
FBS-DMEM/Ham's F12 medium was added. • 3) Test compound solution was added with each 10 μL/well. • 4) LPS solution was added with each 10 μL/well. • 5) The sample to which 1% dimethylsulfoxide-containing 10% FBS-DMEM/Ham's F12 medium was added with each 10 μL/well in place of each test compound solution, and 10% FBS-DMEM/Ham's F12 medium was added in place of the LPS solution was made a negative control. • 6) The sample in which 1% dimethylsulfoxide-containing 10% FBS-DMEM/Ham's F12 medium was added with each 10 μL/well in place of each test compound solution was made a positive control. • 7) After completion of 4 hours cultivation, the supernatant was recovered and the amount of IL-6 released in the supernatant was measured by using an HTRF human IL-6 Kit. • 8) The IL-6 production inhibitory ratio was calculated according to the following calculation formula. (Calculation of IL-6 Production Inhibitory Ratio)
The IL-6 production inhibitory ratio (%) was calculated by the following formula. IL-6 production inhibitory ratio (%)=100×{1−(IL-6 produced amount of each test compound solution−average value of IL-6 produced amount of negative control group)/(average value of IL-6 produced amount of positive control group−average value of IL-6 produced amount of negative control group)}(%)
Further, the IL-6 production inhibitory ratio (Efficacy (% DEX)) when the DEX treated group was made 100 was calculated. Efficacy (% DEX)=100×{(average value of IL-6 production inhibitory ratio of each test compound solution)/(average value of IL-6 production inhibitory ratio of DEX treated group)}(%)
In addition, IC50 was calculated according to a conventional method. IDBS XLfit4 was used for the calculation.
(In general: TR-FRET usually uses a lanthanide donor and a delayed reading to cut background.)

pIC50: −log10 of the molar value.

In the case of `COc1ccc(-c2ccc3c(c2COc2cc(F)ccc2C)N(C)C(=O)C(C)(C)N3)c(OC)c1` [Control compound E, 7-(2,4-dimethoxyphenyl)-8-(5-fluoro-2-methyl-phenoxymethyl)-1,3,3-trimethyl-3,4-dihydro-1H-quinoxalin-2-one, reference compound], the inhibition at 1 µM in assay [1] is less than 0%. Further, the Emax in assay [2] stood at 10%.
Consider `COc1cc(OC[C@@H](O)CC#N)ccc1-c1ccc2c(c1COc1cc(F)ccc1C)N(C)C(=O)C(C)(C)N2` [Compound 5-2, (S)-7-[4-(3-cyano-2-hydroxypropyl)oxy-2-methoxyphenyl]-8-(5-fluoro-2-methyl-phenoxymethyl)-1,3,3-trimethyl-3,4-dihydro-1H-quinoxalin-2-one], for which, in assay [2], the Emax is more than 99% and the pIC50 is 7.89.
In the case of `COc1ccc(O)cc1-c1ccc2c(c1COc1cc(F)ccc1C)N(C)C(=O)C(C)(C)N2` [Control compound C, 8-(5-fluoro-2-methylphenoxymethyl)-7-(5-hydroxy-2-methoxyphenyl)-1,3,3-trimethyl-3,4-dihydro-1H-quinoxalin-2-one], the inhibition at 1 µM in assay [1] stood at 26%. Also, in assay [2], the Emax worked out at 71% and the pIC50 is 7.03.
Regarding `COc1cc(OC[C@@H](O)CCO)ccc1-c1ccc2c(c1COc1cc(F)ccc1C)N(C)C(=O)C(C)(C)N2` [Compound 2-1, (S)-7-[4-(2,4-dihydroxybutyl)oxy-2-methoxyphenyl]-8-(5-fluoro-2-methyl-phenoxymethyl)-1,3,3-trimethyl-3,4-dihydro-1H-quinoxalin-2-one], the inhibition at 1 µM in assay [1] amounted to 79%. For the same molecule, the Emax in assay [2] is 82%.
`COc1cc(OC[C@H](C)OC(=O)CN(C)C)ccc1-c1ccc2c(c1COc1cc(F)ccc1C)N(C)C(=O)C(C)(C)N2` [Compound 11-1, (S)-7-[4-[2-(N,N-dimethylaminoacetoxy)propyl]oxy-2-methoxyphenyl]-8-(5-fluoro-2-methylphenoxymethyl)-1,3,3-trimethyl-3,4-dihydro-1H-quinoxalin-2-one]: the inhibition at 1 µM in assay [1] amounted to 72%.
`COc1ccc(CO)cc1-c1ccc2c(c1COc1cc(F)ccc1C)N(C)C(=O)C(C)(C)N2` [Control compound B, 8-(5-fluoro-2-methylphenoxymethyl)-7-(5-hydroxymethyl-2-methoxyphenyl)-1,3,3-trimethyl-3,4-dihydro-1H-quinoxalin-2-one, reference compound]: in assay [1], the inhibition at 1 µM stood at 35%. In addition, in assay [2], the Emax is 62%.
In the case of `COCOc1ccc(-c2ccc3c(c2COc2cc(F)ccc2C)N(C)C(=O)C(C)(C)N3)c(OC)c1` [Control compound F, 8-(5-fluoro-2-methylphenoxymethyl)-7-(2-methoxy-4-methoxymethoxyphenyl)-1,3,3-trimethyl-3,4-dihydro-1H-quinoxalin-2-one, reference compound], the inhibition at 1 µM in assay [1] is less than 0%. In assay [2], the Emax stood at 62%.
Taken in the same sequence, the figures for `COc1cc(OC[C@H](C)O)ccc1-c1ccc2c(c1COc1cc(F)ccc1C)N(C)C(=O)C(C)(C)N2` [Compound 1-1, (S)-8-(5-fluoro-2-methylphenoxymethyl)-7-[4-(2-hydroxypropyl)oxy-2-methoxy-phenyl]-1,3,3-trimethyl-3,4-dihydro-1H-quinoxalin-2-one] were 73% and 86%.
Taken in the same sequence, the figures for `CCCC(=O)Oc1ccc(-c2ccc3c(c2COc2cc(F)ccc2C)N(C)C(=O)C(C)(C)N3)c(OC)c1` [Control compound D, 7-(4-butyryloxy-2-methoxyphenyl)-8-(5-fluoro-2-methylphenoxymethyl)-1,3,3-trimethyl-3,4-dihydro-1H-quinoxalin-2-one, reference compound] were less than 0% and 69%.

The pIC50 is −log10 of the IC50, conventionally taken in molar units.
